From patent publication US11352350B2, “IRAK degraders and uses thereof” (Kymera Therapeutics, Inc., priority 2018, dated 2022) come the findings set out here.

Holding throughout (format): cell-based
For one test, the target named is IRAK4 (Homo sapiens (Human), UniProt Q9NWZ3). Put plainly: Deep tandem mass tag (TMT) proteomics in OCI-LY10. The settings on record: OCI-LY10, 8 hours. Here is the method: Total protein was isolated from OCI-LY10 cells treated with 10 nM I-30, 30 nM I-30 and 30 nM 2-{2-[(cyclopropylmethyl)amino]pyridin-4-yl}-N-[3-(difluoromethyl)-1-[4-({[2-(2-{3-[3-methyl-1-(1-methyl-2,6-dioxopiperidin-3-yl)-2-oxo-2,3-dihydro-1H-1,3-benzodiazol-4-yl]propoxy}ethoxy)ethyl]amino}methyl)phenyl]-1H-pyrazol-4-yl]-1,3-oxazole-4-carboxamide for 8 hours. Vehicle (DMSO)-treated cells were used as controls. Protein lysates, 2 biological replicates per condition, were prepared at 4 C in 8M urea, 75 mM NaCl, 1 mM EDTA in 50 mM Tris HCl (pH 8), 10 mM NaF, phosphatase inhibitor cocktail 2 (1:100; Sigma, P5726) and cocktail 3 (1:100; Sigma, P0044), 2 μg/mL aprotinin (Sigma, A6103), 10 μg/mL Leupeptin (Roche, 11017101001), and 1 mM PMSF (Sigma, 78830). Lysates were spun at 20,000 rcf for 10 min and supernatant (containing extracted proteins) was transferred to a clean microcentrifuge tube. Protein concentrations were determined using the Pierce BCA assay. […] Online fractionation was performed using a nanoflow Proxeon EASY-nLC 1200 UHPLC system (Thermo Fisher Scientific) and separated peptides were analyzed on a benchtop Orbitrap Q Exactive plus mass spectrometer (Thermo Fisher Scientific). All data were analyzed using Spectrum Mill software package (Agilent Technologies). […] In total, 10,992 proteins were quantified. […]

The subject of the next test is OCI-LY3. Nature of the test: OCI-LY3 viability, CTG. The settings on record: Homo sapiens, MYD88 MUT.
The target in a further test is IKAROS (Homo sapiens (Human), UniProt Q13422+Q96SW2). Put plainly: IKAROS degradation in OCI-LY10 (DC50).

SMILES strings stand for the structures. pIC50: −log10 of the molar value.

Chain of IRAK4 (Q9NWZ3 whole entry): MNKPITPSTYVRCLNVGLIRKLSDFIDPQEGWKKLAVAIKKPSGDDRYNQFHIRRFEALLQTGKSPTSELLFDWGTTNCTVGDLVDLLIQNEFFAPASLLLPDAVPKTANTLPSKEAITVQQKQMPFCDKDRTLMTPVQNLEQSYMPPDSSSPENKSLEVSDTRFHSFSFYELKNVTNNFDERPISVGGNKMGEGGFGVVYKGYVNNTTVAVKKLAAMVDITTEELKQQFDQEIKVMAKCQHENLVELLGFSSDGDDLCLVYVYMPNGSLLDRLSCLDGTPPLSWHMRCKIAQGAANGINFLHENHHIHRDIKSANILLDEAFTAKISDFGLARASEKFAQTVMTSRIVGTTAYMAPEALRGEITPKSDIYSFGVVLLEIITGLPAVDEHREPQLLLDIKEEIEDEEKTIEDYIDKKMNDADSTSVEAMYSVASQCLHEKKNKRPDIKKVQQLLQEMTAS
Chain of IKAROS (Q13422 whole entry): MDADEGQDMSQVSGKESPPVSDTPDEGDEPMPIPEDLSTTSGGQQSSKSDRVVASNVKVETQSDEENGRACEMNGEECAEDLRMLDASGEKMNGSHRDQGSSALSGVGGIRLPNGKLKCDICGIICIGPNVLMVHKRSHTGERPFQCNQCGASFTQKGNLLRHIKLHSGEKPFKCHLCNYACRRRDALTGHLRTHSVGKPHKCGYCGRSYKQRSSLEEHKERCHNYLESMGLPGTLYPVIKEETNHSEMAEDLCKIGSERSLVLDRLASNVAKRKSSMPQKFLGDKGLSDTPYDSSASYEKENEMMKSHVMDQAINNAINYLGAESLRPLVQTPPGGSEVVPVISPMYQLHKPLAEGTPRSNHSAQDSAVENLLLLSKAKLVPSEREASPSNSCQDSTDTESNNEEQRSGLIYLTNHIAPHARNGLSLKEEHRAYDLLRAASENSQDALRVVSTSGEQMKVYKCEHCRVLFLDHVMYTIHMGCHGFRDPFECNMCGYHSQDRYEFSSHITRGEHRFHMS
Chain of IKAROS (Q96SW2 whole entry): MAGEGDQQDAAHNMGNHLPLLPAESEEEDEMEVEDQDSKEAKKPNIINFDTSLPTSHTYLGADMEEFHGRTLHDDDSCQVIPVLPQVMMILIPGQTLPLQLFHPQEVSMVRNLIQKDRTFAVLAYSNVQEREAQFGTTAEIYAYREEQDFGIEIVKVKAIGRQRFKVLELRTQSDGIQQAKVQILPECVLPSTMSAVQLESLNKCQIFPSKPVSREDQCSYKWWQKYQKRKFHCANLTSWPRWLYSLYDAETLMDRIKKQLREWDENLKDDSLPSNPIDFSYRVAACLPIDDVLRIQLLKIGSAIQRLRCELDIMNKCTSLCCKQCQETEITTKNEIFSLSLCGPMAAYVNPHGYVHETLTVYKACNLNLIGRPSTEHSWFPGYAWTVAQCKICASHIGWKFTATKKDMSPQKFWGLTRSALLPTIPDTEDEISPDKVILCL
Chain of IKAROS (Q16531 whole entry partner): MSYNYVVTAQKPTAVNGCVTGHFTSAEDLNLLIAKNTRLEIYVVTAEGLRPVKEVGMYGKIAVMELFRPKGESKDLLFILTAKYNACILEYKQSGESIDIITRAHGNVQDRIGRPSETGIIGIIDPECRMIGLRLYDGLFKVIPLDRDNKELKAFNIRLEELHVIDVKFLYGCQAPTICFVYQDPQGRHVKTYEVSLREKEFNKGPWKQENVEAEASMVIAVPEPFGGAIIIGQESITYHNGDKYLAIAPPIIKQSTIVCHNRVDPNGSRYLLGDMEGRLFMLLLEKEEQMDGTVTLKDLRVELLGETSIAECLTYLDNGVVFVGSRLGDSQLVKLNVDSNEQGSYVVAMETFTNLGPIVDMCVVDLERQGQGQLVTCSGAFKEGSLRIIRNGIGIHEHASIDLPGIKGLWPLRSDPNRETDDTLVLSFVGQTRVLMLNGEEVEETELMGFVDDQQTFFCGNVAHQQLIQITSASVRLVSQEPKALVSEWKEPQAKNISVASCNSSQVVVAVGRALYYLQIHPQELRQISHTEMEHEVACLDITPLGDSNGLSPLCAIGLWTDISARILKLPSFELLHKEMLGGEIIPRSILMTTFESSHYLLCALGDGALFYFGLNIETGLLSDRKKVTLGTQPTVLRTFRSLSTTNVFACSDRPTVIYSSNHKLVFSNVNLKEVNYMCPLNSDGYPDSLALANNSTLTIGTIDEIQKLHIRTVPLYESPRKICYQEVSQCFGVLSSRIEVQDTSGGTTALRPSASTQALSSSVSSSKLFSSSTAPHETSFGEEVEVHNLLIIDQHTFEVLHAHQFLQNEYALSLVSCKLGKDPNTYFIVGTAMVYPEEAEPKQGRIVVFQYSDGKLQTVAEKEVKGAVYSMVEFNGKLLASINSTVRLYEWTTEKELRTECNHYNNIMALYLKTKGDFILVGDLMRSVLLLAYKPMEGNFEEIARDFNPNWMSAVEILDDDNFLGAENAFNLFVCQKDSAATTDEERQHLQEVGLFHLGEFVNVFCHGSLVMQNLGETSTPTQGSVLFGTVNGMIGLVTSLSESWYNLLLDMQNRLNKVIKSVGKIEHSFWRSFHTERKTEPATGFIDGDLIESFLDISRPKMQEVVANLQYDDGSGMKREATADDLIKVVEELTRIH

With `CN(CCCOCCCc1cccc2c1n(C)c(=O)n2C1CCC(=O)NC1=O)C[C@H]1CC[C@H](n2cc(NC(=O)c3coc(-c4ccnc(NCC5CC5)c4)n3)c(C(F)F)n2)CC1` (mixture of isomers) [I-30, 2-[2-(Cyclopropylmethylamino)-4-pyridyl]-N-[3-(difluoromethyl)-1-[4-[[3-[3-[1-(2,6-dioxo-3-piperidyl)-3-methyl-2-oxo-benzimidazol-4-yl]propoxy]propyl-methyl-amino]methyl]cyclohexyl]pyrazol-4-yl] oxazole-4-carboxamide], the “selectivity for IRAK4 vs. other proteins in OCI-LY10 (proteomics)” value at IRAK4 is listed as “highly selective for IRAK4 vs. >10,000 other proteins”.
What is called pIC50 is the IC50 on a negative log10 scale, so that one unit is a factor of ten. A lower pIC50 goes with a large IC50. What is called DC50 is the midpoint of the concentration-degradation curve. A higher DC50 goes with degradation only at high concentration. Compound `CN(C[C@H]1CC[C@H](n2cc(NC(=O)c3coc(-c4ccnc(NCC5CC5)c4)n3)c(C(F)F)n2)CC1)C1CCN(Cc2cccc3c2n(C)c(=O)n3C2CCC(=O)NC2=O)CC1` (stereo partly drawn) [I-75, 2-(2-((cyclopropylmethyl)amino)pyridin-4-yl)-N-(3-(difluoromethyl)-1-((1r,4r)-4-(((1-((1-(2,6-dioxopiperidin-3-yl)-3-methyl-2-oxo-2,3-dihydro-1H-benzo[d]imidazol-4-yl)methyl)piperidin-4-yl)(methyl)amino)methyl)cyclohexyl)-1H-pyrazol-4-yl)oxazole-4-carboxamide] had a pIC50 with OCI-LY3 of 6.74. The DC50 on IKAROS was more than 100 nM.
